Experiment [1] deals with hepatic glucose production, VPC and VCS (InsP3R-I signaling). Description: Acute 2 hr glucagon infusion in WT and liver-specific InsP3R-I KO mice. The class given is in vivo, mouse. An excerpt:
All protocols were approved by the Yale University Animal Care and Use Committee. Liver-specific InsP3R-I KO mice were generated as described (Feriod, et al. Hepatology Communications 1, 23-35, 2017) and in all experiments, littermates were studied at 10-12 weeks of age. They were fed standard chow (Teklad #2018) and housed on a 12 hr light/dark cycle in the Yale Animal Resources Center. To knock down ATGL in a liver-specific manner, an adeno-associated virus targeting ATGL (Vector BioLabs, 10^12 gc per mouse) was administered by retro-orbital injection four weeks prior to studies. Male mice were used for in vivo studies, while female mice were used for in vitro studies, unless otherwise specified. One week prior to in vivo studies, mice underwent surgery under isoflurane anesthesia to place a catheter in the jugular vein. Post-surgical recovery was confirmed by regaining the pre-surgical body weight prior to any in vivo studies. They were fasted overnight, unless otherwise stated, prior to in vivo studies. […] Mice were euthanized using IV pentobarbital at the conclusion of the terminal study.
In the rat studies, blood was collected from the jugular venous catheter. In both species, samples were immediately centrifuged (12,000 rpm) to separate plasma from red blood cells. PINTA analysis of hepatic mitochondrial fluxes was employed in both rats and mice (see Example 1). Briefly, mice were infused with a two-hour primed (5 min, 3×)-continuous infusion of [3-^13C] lactate (40 μmol kg^−1 min^−1) and [1,2,3,4,5,6,6-^2H7] glucose (0.1 mg kg^−1 min^−1). Rats were infused with lactate at the same rate, as well as [3-^3H] glucose (0.1 mCi kg^−1 min^−1). At the conclusion of the study, animals were euthanized with IV pentobarbital.
Total glucose turnover (i.e. hepatic glucose production) was measured by determining the specific activity of [^3H] glucose in plasma using a scintillation counter, and the VPC/VHGP ratio was calculated using the equation
[formula] and calculated absolute VCS by dividing VPC by VPC/VCS. The derivations of each equation are described in detail in Example 1. The possible contribution of [^13C] bicarbonate to label the TCA cycle was corrected for as follows. Liver [^13C] bicarbonate enrichment was measured by GC-MS (HP-1 column: 12 m×0.2 mm×0.33 μm film, isothermal: 110° C.). Liver tissue (˜[…]) was placed in a GC-MS vial, purged with N2 gas, and sealed. To each sample, a saturated aqueous solution of citric acid (50 μl) was injected into the vial through the cap. After ten minutes, CO2 was sampled from the head-space and ions with m/z 44 and 45 daltons were monitored using electron impact ionization.
Plasma glucose concentrations were measured using a YSI Glucose Analyzer. […] Plasma NEFA concentrations were measured using the Wako NEFA assay, while plasma glycerol and plasma and liver amino acid concentrations were measured by GC/MS. […] Protein concentrations were measured by Western blot, using antibodies from Santa Cruz (PC, PEPCK, CAMKII), Cell Signaling (ATGL, pCAMKIV, CAMKIV, pCRTC2, CRTC2, pACC, ACC, pAMPK, AMPK, pHSL, HSL, GAPDH, and β-actin), Novus Biologicals (pCAMKII), Abcam (pATGL), LSBio (pInsP3R-I), and BD Transduction Laboratories (InsP3R-II, InsP3R-III, PKCε).

Experiment [2] relates to primary mouse hepatocytes. Description: Oxygen consumption in isolated hepatocytes (Seahorse). The class given is cell-based. The method, then: To assess oxygen consumption, primary mouse hepatocytes were isolated as described above and plated on collagen-I coated XF24 V7 cell culture plates (1.2×10^4 cells per well) in 2 mL recovery media as previously described (Camporez, J. P. et al. Endocrinology 154, 3099-3109). Following incubation for 6 hr at 37° C. and 5% CO2, the cells were washed twice with 1 ml Low Glucose Culture Media and incubated overnight in 250 μl low glucose culture media at 37° C. and 5% CO2. The following morning, cells were washed with XF24 assay media (DMEM Base containing 1.0 mM pyruvate, 2 mM glutamine and 5.5 mM glucose, pH 7.4). 500 μL of XF24 Assay Media was added to each well and plates were equilibrated at 37° C. for 1 h. Four measurements of basal oxygen consumption rates (picomoles per minute) were recorded on a Seahorse Bioscience XF^e 24 Analyzer (Seahorse Biosciences) using an instrument protocol of 3-minute mix, 2-minute wait, and 3-minute measure. […] Ten measurements were taken following injection and the average of eight measurements were used for subsequent analyses. Oxygen consumption rates were normalized to total protein content and expressed as fold change compared to vehicle-treated cells. Experiments were repeated three times using 3-4 mice per genotype.

Experiment [3] deals with primary hepatocytes (cytosolic and mitochondrial calcium). Description: Ca2+ imaging in isolated hepatocytes. The class given is cell-based, mouse. The settings on record: isolated WT hepatocytes (not InsP3R-I KO); 100 nM glucagon or 50 nM vasopressin. The method, then: Primary hepatocytes were isolated by the Yale Liver Center from wild-type and InsP3R-I KO mice and plated on glass coverslips coated with Rat Collagen Type I. Cells were loaded with the ratiometric cytosolic Ca^2+ indicator dye, Fura-2 AM (Thermo Fisher Scientific), or the mitochondrial matrix-targeted Ca^2+ indicator, Rhod-2 AM (Thermo Fisher Scientific) according to manufacturer's instructions. Ca^2+ imaging experiments were performed in 4-(2-hydroxyethyl)-1-piperazine ethanesulfonic acid (HEPES)-buffered balanced salt solution (25 mM HEPES, 121 mM NaCl, 4.7 mM KCl, 1.2 mM MgSO4, 1.2 mM KPO4, 5 mM NaHCO3, 2.0 mM CaCl2, 10 mM Glucose, pH 7.4) with or without the PKA inhibitor H-89 (25 μM) two to five hr following initial plating. Coverslips were transferred to a custom-built perfusion chamber on the stage of an inverted microscope connected to a RedShirtImaging camera (Olympus Life Science, Waltham, Mass.). […] For cytoplasmic calcium readings, changes in fluorescence (F, λ=340) were normalized by the initial fluorescence (F0, λ=380) and were expressed as F/F0. […] Individual cell responses were normalized to their respective baseline Rhod-2 AM fluorescence values, and changes were expressed as Normalized Δ Fluorescence.

The results in this text go back to US11484608B2, “Non-invasive assessment of hepatic mitochondrial metabolism by positional isotopomer NMR tracer analysis (PINTA)” (YALE UNIVERSITY, priority 2017, dated 2022).

Regarding glucagon, the “hepatic CAMKII phosphorylation” value in experiment [1] (InsP3R-I-dependent, CAMKIV not) is “stimulated”. Also, in experiment [1] (PINTA, acute glucagon infusion), the “increases in rates of HGP” value is on record as roughly 25%. Moreover, in experiment [1] (WT livers), the “increase in InsP3R-I phosphorylation” value is “two-fold”. In experiment [1] (WT mice), the “increase in hepatic mitochondrial oxidation (VCS)” value is reported as “five-fold” and the “plasma non-esterified fatty acid (NEFA) concentrations” value is listed as “reduced”. Also, the “increase in hepatic ATGL S406 phosphorylation” value in experiment [1] (WT mice in vivo, not InsP3R-I KO) was “three-fold”. The “plasma glucose and insulin concentrations” value in experiment [1] (WT mice, acute glucagon infusion) is recorded as “modest increase”. Besides, the “increase in hepatic pyruvate dehydrogenase flux (VPDH)” value in experiment [1] (WT mice, not InsP3R-I KO) came out at 7 fold. Also, in experiment [1] (acute glucagon infusion), the “hepatic malonyl-CoA content” value was “independently of any changes”; the “increases in hepatic long-chain acyl-CoA and acetyl-CoA content” value is recorded as 35-60%. Besides, the “VPK as percentage of hepatic VPC flux” value in experiment [1] (acute glucagon study) is 15-35%. Moreover, in experiment [1] (both genotypes), the “cAMP concentrations, protein kinase A activity, CRTC2 phosphorylation (liver)” value is listed as “increased” and the “hormone-sensitive lipase (HSL) phosphorylation” value is listed as “increased”. Besides, the hepatic mitochondrial oxidation entry in experiment [1] (liver-specific InsP3R-I knockout mice) was “failed to exhibit any increases”. Besides, the “pyruvate kinase flux (VPK)” value in experiment [1] (mice infused with glucagon) is “without any difference”. Further, the “stimulation of mitochondrial oxidation” value in experiment [2] (InsP3R-I KO hepatocytes from male mice) is given as “blunted”. The “stimulation of mitochondrial oxidation” value in experiment [2] (WT hepatocytes from male mice) is given as roughly 60%. The oxygen consumption result in experiment [2] (isolated WT hepatocytes, 100 nM glucagon, not InsP3R-I KO) is on record as “increase”. Further, the “mitochondrial and cytosolic calcium signaling” value in experiment [3] was “increases”.
